What follows are compounds tested against T1, NEDD8 activating enzyme (Homo sapiens, UniProt Q8TBC4) (assay: Inhibition of recombinant human NAEalpha/N-terminal His-tagged NAEbeta expressed in baculovirus infected insect Sf9 cells using N-terminal FLAG tagged Nedd8 as substrate incubated for 105 mins in presence of N-terminal GST-tagged Ubc12 by FRET assay).
T1 sequence (Q8TBC4 whole entry): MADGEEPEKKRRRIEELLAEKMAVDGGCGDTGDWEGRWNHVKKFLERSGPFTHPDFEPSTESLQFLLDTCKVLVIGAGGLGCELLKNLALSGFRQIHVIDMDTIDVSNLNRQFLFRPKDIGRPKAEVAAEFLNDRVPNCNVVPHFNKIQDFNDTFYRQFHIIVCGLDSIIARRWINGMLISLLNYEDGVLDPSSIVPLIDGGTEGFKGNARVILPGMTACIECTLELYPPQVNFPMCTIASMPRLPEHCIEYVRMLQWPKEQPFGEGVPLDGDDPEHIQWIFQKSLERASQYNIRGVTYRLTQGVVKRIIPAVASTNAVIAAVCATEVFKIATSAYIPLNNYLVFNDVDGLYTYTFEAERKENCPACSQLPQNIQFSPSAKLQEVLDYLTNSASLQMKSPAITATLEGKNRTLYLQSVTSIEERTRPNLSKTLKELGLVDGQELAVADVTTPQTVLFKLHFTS
T1 sequence (Q13564 whole entry): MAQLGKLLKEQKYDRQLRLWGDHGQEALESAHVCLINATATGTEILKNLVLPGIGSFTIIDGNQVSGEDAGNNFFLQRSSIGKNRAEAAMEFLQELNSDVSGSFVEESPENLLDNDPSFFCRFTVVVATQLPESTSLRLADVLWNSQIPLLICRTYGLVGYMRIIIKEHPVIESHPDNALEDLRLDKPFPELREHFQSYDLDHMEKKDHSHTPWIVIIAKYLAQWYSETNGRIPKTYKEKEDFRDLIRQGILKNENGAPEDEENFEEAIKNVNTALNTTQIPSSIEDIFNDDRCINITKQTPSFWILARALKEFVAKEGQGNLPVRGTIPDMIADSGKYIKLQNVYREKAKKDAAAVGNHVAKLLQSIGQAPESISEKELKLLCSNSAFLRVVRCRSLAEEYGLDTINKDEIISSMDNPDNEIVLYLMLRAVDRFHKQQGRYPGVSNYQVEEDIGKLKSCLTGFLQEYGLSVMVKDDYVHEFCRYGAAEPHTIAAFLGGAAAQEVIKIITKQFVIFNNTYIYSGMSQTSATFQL
NS(=O)(=O)OC[C@@H]1C[C@@H](Nc2ncnc3[nH]c(-c4ccccc4OC(F)(F)F)nc23)C[C@@H]1O was tested, and the IC50 was ≤ 500 nM.
In the case of NS(=O)(=O)OC[C@@H]1C[C@@H](Oc2cc(-c3ccccc3)ncn2)C[C@@H]1O, the IC50 is reported as 500 to 10000 nM.
Cc1nc(N[C@H]2CCc3ccccc32)nc(N[C@@H]2C[C@H](COS(N)(=O)=O)[C@@H](O)[C@H]2O)n1 was tested, and the IC50 was ≤ 500 nM.
For NS(=O)(=O)OC[C@@H]1C[C@@H](Nc2ncnc3[nH]c(-c4ccc(Cl)cc4)nc23)C[C@@H]1O, the IC50 was ≤ 500 nM.
In the case of NS(=O)(=O)OC[C@H]1C[C@@H](Nc2ncnc3[nH]c(-c4ccccc4)nc23)[C@H](O)[C@@H]1O, the IC50 is reported as ≤ 500 nM.
NS(=O)(=O)OC[C@@H]1C[C@@H](Nc2cc(N[C@H]3CCc4ccccc43)nc(=O)[nH]2)C[C@@H]1O showed an IC50 of 500 to 10000 nM.
For CO[C@H]1Cc2ccccc2[C@H]1Nc1cc(N[C@@H]2C[C@H](COS(N)(=O)=O)[C@@H](O)[C@H]2O)ncn1, the IC50 was ≤ 500 nM.
With CO[C@H]1Cc2ccccc2[C@H]1Nc1ncnc(O[C@@H]2C[C@@H](COS(N)(=O)=O)[C@@H](O)C2)c1F the IC50 was ≤ 500 nM.
With NS(=O)(=O)OC[C@H]1C[C@@H](Nc2ccnc(C(=O)N[C@H]3CCc4ccccc43)c2)[C@H](O)[C@@H]1O the IC50 was > 10000 nM.
CN(Cc1ccccc1)c1nccc(N[C@@H]2C[C@H](COS(N)(=O)=O)[C@@H](O)[C@H]2O)n1 was tested, and the IC50 was > 10000 nM.
For NS(=O)(=O)OC[C@@H]1C[C@@H](Oc2cc(N[C@H]3CCc4ccccc43)ncn2)C[C@@H]1O, the IC50 was ≤ 500 nM.
For NS(=O)(=O)OC[C@@H]1C[C@@H](Oc2cc(NCc3cccc4ccccc34)ncn2)C[C@@H]1O, the IC50 was ≤ 500 nM.
NS(=O)(=O)OC[C@H]1C[C@@H](Nc2cc(CCc3ccccc3)ncn2)[C@H](O)[C@@H]1O gave an IC50 of 500 to 10000 nM.
For NS(=O)(=O)OC[C@@H]1C[C@@H](Oc2cc(N[C@H]3CCCc4ccccc43)ncn2)C[C@@H]1O, the IC50 was ≤ 500 nM.
With NS(=O)(=O)OC[C@H]1C[C@@H](NC(=O)c2ccccn2)[C@H](O)[C@@H]1O the IC50 was > 10000 nM.

From ChEMBL document CHEMBL3879911, “Heteroaryl compounds useful as inhibitors of E1 activating enzymes” (2008)
